Assays:
[1] = Storage stability of crystalline forms at 25° C./60% RH; format: physicochemical; settings: storage for 6 months at 25° C. and a relative humidity of 60%
[2] = Storage stability of crystalline forms at 40° C./75% RH (6 months stability results); format: physicochemical; settings: for Impurity Profile (i) Tetrahydro benzazepine / Impurity Profile (ii) (S)-methyl amino Compd. / Impurity Profile (iii) Benzocylco butane Compd. / Impurity Profile (iv) Dimer Impurity: BDL = Below Detection Limit
Excerpt: In another general aspect, the storage stable crystalline Form-II of ivabradine hydrochloride may be characterized by at least 6 months stability results as outline in Table-III which is representative for one of the batch.
In another general aspect, the storage stable crystalline Form III of ivabradine hydrochloride may be characterized by at least 6 months stability results as outline in Table-IV which is representative for one of the batch.

[3] = 1 Month, 40° C. ± 2° C./75% ± 5% RH
[4] = 1 Month, 40° C. ± 2° C./75% ± 5% RH, listed as Form-II, hydrochloride
[5] = 2 Months, 40° C. ± 2° C./75% ± 5% RH
[6] = 2 Months, 40° C. ± 2° C./75% ± 5% RH, listed as Form-II, hydrochloride
[7] = 3 Months, 40° C. ± 2° C./75% ± 5% RH
[8] = 3 Months, 40° C. ± 2° C./75% ± 5% RH, listed as Form-II, hydrochloride
[9] = 6 Months, 40° C. ± 2° C./75% ± 5% RH
[10] = Initial, specification Not more than 0.15
[11] = 1 Month, 40° C. ± 2° C./75% ± 5% RH, listed as Form-III, hydrochloride
[12] = 2 Months, 40° C. ± 2° C./75% ± 5% RH, listed as Form-III, hydrochloride
[13] = 3 Months, 40° C. ± 2° C./75% ± 5% RH, listed as Form-III, hydrochloride

COc1cc2c(cc1OC)CC(=O)N(CCCN(C)C[C@H]1Cc3cc(OC)c(OC)cc31)CC2.Cl [Form II, 3-{3-{{[(7S)-3,4-dimethoxybicyclo[4.2.0]octa-1,3,5-trien-7-yl]methyl}(methyl)amino}-propyl}-7,8-dimethoxy-1,3,4,5-tetrahydro-2H-3-benzazepin-2-one hydrochloride]
quantity of crystalline β, δ, γ, or amorphous forms after storage [1]: no detectable quantity | Description [2, 3]: White | Water by KF (% w/w) [2, 3]: 2.0 % w/w | Impurity Profile (i) Tetrahydro benzazepine [2, 3]: BDL | Impurity Profile (ii) (S)-methyl amino Compd. [2, 3]: BDL | Impurity Profile (iii) Benzocylco butane Compd. [2, 3]: BDL | Impurity Profile (iv) Dimer Impurity [2, 3]: BDL | Impurity Profile (v) Single Ind. [2, 4]: 0.02 | Impurity Profile (vi) Total Imp. [2, 4]: 0.05 | Polymorph [2, 4]: Form-II | Description [2, 5]: White | Water by KF (% w/w) [2, 5]: 2.0 % w/w | Impurity Profile (i) Tetrahydro benzazepine [2, 5]: BDL | Impurity Profile (ii) (S)-methyl amino Compd. [2, 5]: BDL | Impurity Profile (iii) Benzocylco butane Compd. [2, 5]: BDL | Impurity Profile (iv) Dimer Impurity [2, 5]: BDL | Impurity Profile (v) Single Ind. [2, 6]: 0.02 | Impurity Profile (vi) Total Imp. [2, 6]: 0.03 | Polymorph [2, 6]: Form-II | Description [2, 7]: White | Impurity Profile (vi) Total Imp. [2, 7]: 0.08 | Water by KF (% w/w) [2, 7]: 2.1 % w/w | Impurity Profile (i) Tetrahydro benzazepine [2, 7]: BDL | Impurity Profile (ii) (S)-methyl amino Compd. [2, 7]: BDL | Impurity Profile (iii) Benzocylco butane Compd. [2, 7]: BDL | Impurity Profile (iv) Dimer Impurity [2, 7]: BDL | Impurity Profile (v) Single Ind. [2, 8]: 0.03 | Polymorph [2, 8]: Form-II | Description [2, 9]: White | Impurity Profile (v) Single Ind. [2, 9]: 0.03 | Impurity Profile (vi) Total Imp. [2, 9]: 0.09 | Water by KF (% w/w) [2, 9]: 2.0 % w/w | Impurity Profile (i) Tetrahydro benzazepine [2, 9]: BDL | Impurity Profile (ii) (S)-methyl amino Compd. [2, 9]: BDL | Impurity Profile (iii) Benzocylco butane Compd. [2, 9]: BDL | Impurity Profile (iv) Dimer Impurity [2, 9]: BDL | Polymorph ([2]; 6 Months, 40° C. ± 2° C./75% ± 5% RH, listed as Form-II, hydrochloride): Form-II | Impurity Profile (i) Tetrahydro benzazepine [2, 10]: BDL | Impurity Profile (ii) (S)-methyl amino Compd. [2, 10]: BDL | Impurity Profile (iii) Benzocylco butane Compd. [2, 10]: BDL | Impurity Profile (iv) Dimer Impurity [2, 10]: BDL | Polymorph ([2]; Initial, listed as Form-II, hydrochloride): Form-II | Impurity Profile (v) Single Ind. [2, 10]: 0.04 | Impurity Profile (vi) Total Imp. [2, 10]: 0.09 | Water by KF (% w/w) ([2]; Initial, specification Not more than 4.0%): 2.1 % w/w | Description ([2]; Initial, specification White to slightly yellow powder): White | quantity of crystalline β, δ, γ, or amorphous forms after storage ([2]; storage for 6 months at 40° C. and a relative humidity of 75%): no detectable quantity

COc1cc2c(cc1OC)CC(=O)N(CCCN(C)C[C@H]1Cc3cc(OC)c(OC)cc31)CC2.Cl [Form III, 3-{3-{{[(7S)-3,4-dimethoxybicyclo[4.2.0]octa-1,3,5-trien-7-yl]methyl}(methyl)amino}-propyl}-7,8-dimethoxy-1,3,4,5-tetrahydro-2H-3-benzazepin-2-one hydrochloride]
Impurity Profile (v) Single Ind. [2, 11]: 0.04 | Impurity Profile (vi) Total Imp. [2, 11]: 0.07 | Polymorph [2, 11]: Form-III | Impurity Profile (v) Single Ind. [2, 12]: 0.03 | Impurity Profile (vi) Total Imp. [2, 12]: 0.06 | Polymorph [2, 12]: Form-III | Impurity Profile (v) Single Ind. [2, 13]: 0.04 | Polymorph [2, 13]: Form-III | Polymorph ([2]; 6 Months, 40° C. ± 2° C./75% ± 5% RH, listed as Form-III, hydrochloride): Form-III | Polymorph ([2]; Initial, listed as Form-III, hydrochloride): Form-III

Source: patent publication US9382209B2, “Polymorphic forms of ivabradine hydrochloride” (CADILA HEALTHCARE LIMITED, priority 2011, dated 2016)
